Assays:
Adrenergic α1A = target: T1, Adrenergic α1A (Homo sapiens, UniProt P35348); assay: Receptor activities, Ki (Table 1); type: binding
T1 sequence (P35348 1-466): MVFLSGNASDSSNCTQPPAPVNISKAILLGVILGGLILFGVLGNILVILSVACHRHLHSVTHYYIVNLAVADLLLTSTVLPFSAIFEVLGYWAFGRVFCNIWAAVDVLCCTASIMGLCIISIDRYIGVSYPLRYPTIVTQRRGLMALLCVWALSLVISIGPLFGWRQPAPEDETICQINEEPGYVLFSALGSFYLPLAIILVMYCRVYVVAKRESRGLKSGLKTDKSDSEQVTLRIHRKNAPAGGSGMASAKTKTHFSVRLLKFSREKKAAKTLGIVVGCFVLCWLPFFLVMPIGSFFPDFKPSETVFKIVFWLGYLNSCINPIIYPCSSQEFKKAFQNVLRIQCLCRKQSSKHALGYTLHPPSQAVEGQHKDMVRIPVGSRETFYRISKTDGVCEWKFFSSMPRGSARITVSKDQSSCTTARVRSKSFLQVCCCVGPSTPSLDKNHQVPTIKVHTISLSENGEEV

Serotonin 5-HT2C = target: T2, Serotonin 5-HT2C (Homo sapiens, UniProt P28335); assay: Receptor activities, Ki (Table 1); type: binding
T2 sequence (P28335 33-458): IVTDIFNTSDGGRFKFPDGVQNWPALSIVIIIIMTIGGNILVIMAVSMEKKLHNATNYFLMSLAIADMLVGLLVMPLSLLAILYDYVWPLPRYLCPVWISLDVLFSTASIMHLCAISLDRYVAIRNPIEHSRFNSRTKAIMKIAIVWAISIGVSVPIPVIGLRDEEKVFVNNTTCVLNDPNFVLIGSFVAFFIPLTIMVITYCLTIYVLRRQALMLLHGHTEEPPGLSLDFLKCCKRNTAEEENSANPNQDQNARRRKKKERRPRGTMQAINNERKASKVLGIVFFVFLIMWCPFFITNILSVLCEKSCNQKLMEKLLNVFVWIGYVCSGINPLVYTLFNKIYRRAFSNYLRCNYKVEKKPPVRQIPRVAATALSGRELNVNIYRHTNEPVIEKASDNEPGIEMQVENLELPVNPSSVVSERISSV

Serotonin 5-HT7 = Serotonin 5-HT7 (Homo sapiens, UniProt P34969); assay: Receptor activities, Ki (Table 1); type: binding
[1] = test system: people with generalized anxiety disorder (GAD); assay: Randomized double-blind placebo-controlled GAD study, adverse events; type: in vivo, human
Method: Example 12. Efficacy and safety study of the oral drug of this invention made as a pharmaceutical composition of this invention in capsules. […] During the study, 3 scheduled visits were conducted in Week 2, Week 4, and Week 8 to assess the effectiveness and safety of the therapy as well as drug inventory and administration. During all of those visits, the patient's diary was checked, a drug inventory was made and the patients' compliance was assessed. In addition, adverse events, concomitant therapy, and vital signs were evaluated, urine drug screen was performed, and assessments using Hamilton Anxiety Rating Scale (HARS), Hamilton Depression Scale (HAMD), Clinical Global Impression-Severity (CGI-S), Clinical Global Impression-Improvement (CGI-I), and Visual Analog Scale (VAS) were made; women of child-bearing potential will take a urine pregnancy test. Also, during visits at Week 4 and Week 8 a physical examination was performed, body weight was measured, an ECG was performed in 12 leads and blood and urine samples were obtained for laboratory tests, namely: urinalysis and biochemical blood analysis, PK analysis before and 1 hour after taking the study drug (SD), and urinalysis. At Week 4, a blood sample was also obtained for genotyping by CYP2D6. At Week 8, treatment in the groups was completed, and all patients were prescribed a placebo to be taken during the follow-up period, which lasted 1 week. During this time, a possible development of SD withdrawal syndrome against the background of placebo was evaluated. During the visit at Week 9, the patient's diary was checked, a drug inventory was made and the patients' compliance was assessed. In addition, adverse events, concomitant therapy, and vital signs were evaluated, urine drug screen was performed, and assessments using the Hamilton Anxiety Rating Scale (HARS), Hamilton Depression Scale (HAMD), Clinical Global Impression-Severity (CGI-S), Clinical Global Impression-Improvement (CGI-I), and Visual Analog Scale (VAS) were made; women of child-bearing age will take a urine pregnancy test. At this point, the patients' participation in the study was completed, and they received recommendations for further treatment as part of standard GAD therapy.

Serotonin 5-HT7, sequence (P34969 whole entry): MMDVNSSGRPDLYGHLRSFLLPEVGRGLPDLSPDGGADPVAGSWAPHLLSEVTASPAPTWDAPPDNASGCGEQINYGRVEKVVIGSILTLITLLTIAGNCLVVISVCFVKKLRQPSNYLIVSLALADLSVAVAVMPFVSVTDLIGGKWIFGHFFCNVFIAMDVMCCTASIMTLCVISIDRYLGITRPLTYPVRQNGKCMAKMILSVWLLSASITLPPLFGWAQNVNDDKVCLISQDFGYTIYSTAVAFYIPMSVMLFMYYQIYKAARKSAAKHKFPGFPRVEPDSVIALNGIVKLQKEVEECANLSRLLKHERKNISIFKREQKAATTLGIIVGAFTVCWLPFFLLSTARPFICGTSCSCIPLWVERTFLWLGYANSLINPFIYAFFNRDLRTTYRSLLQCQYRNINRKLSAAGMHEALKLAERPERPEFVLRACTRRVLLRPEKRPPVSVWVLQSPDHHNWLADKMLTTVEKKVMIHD

Cc1ccc2c(c1)c1c(n2CCc2ccccc2)CCN(C)C1.Cl [A•HCl, 2,8-dimethyl-5-(2-phenylethyl)-2,3,4,5-tetrahydro-1H-pyrido[4,3-b]indole hydrochloride]
Ki (Adrenergic α1A): 30.2 nM
Ki (Serotonin 5-HT2C): 1.17 nM
Ki (Serotonin 5-HT7): 0.153 nM
Adverse effect Bitter taste in mouth, pain in the left hypochondrium, % ([1]; 40 mg/day, 42 patients): 0.0%
Adverse effect Bitter taste in mouth, pain in the left hypochondrium, N (number of people) ([1]; 40 mg/day, 42 patients): 0
Adverse effect Constipation, % ([1]; 40 mg/day, 42 patients): 0.0%
Adverse effect Constipation, N (number of people) ([1]; 40 mg/day, 42 patients): 0
Adverse effect Daytime drowsiness, % ([1]; 40 mg/day, 42 patients): 2.4%
Adverse effect Daytime drowsiness, N (number of people) ([1]; 40 mg/day, 42 patients): 1
Adverse effect Decreased appetite, % ([1]; 40 mg/day, 42 patients): 2.4%
Adverse effect Decreased appetite, N (number of people) ([1]; 40 mg/day, 42 patients): 1
Adverse effect Dizziness, % ([1]; 40 mg/day, 42 patients): 0.0%
Adverse effect Dizziness, N (number of people) ([1]; 40 mg/day, 42 patients): 0
Adverse effect Elevated creatinine kinase level, % ([1]; 40 mg/day, 42 patients): 0.0%
Adverse effect Elevated creatinine kinase level, N (number of people) ([1]; 40 mg/day, 42 patients): 0
Adverse effect Headache, % ([1]; 40 mg/day, 42 patients): 4.8%
Adverse effect Headache, N (number of people) ([1]; 40 mg/day, 42 patients): 2
Adverse effect Impaired concentration, % ([1]; 40 mg/day, 42 patients): 0.0%
Adverse effect Impaired concentration, N (number of people) ([1]; 40 mg/day, 42 patients): 0
Adverse effect Increased psychic tension, % ([1]; 40 mg/day, 42 patients): 0.0%
Adverse effect Increased psychic tension, N (number of people) ([1]; 40 mg/day, 42 patients): 0
Adverse effect Insomnia, % ([1]; 40 mg/day, 42 patients): 2.4%
Adverse effect Insomnia, N (number of people) ([1]; 40 mg/day, 42 patients): 1
Adverse effect Jaw reduction, % ([1]; 40 mg/day, 42 patients): 0.0%
Adverse effect Jaw reduction, N (number of people) ([1]; 40 mg/day, 42 patients): 0
Adverse effect Low hemoglobin level, % ([1]; 40 mg/day, 42 patients): 2.4%
Adverse effect Low hemoglobin level, N (number of people) ([1]; 40 mg/day, 42 patients): 1
Adverse effect Nausea, % ([1]; 40 mg/day, 42 patients): 0.0%
Adverse effect Nausea, N (number of people) ([1]; 40 mg/day, 42 patients): 0
Adverse effect Nocturnal awakening, % ([1]; 40 mg/day, 42 patients): 0.0%
Adverse effect Nocturnal awakening, N (number of people) ([1]; 40 mg/day, 42 patients): 0
Adverse effect Sleepiness, % ([1]; 40 mg/day, 42 patients): 2.4%
Adverse effect Sleepiness, N (number of people) ([1]; 40 mg/day, 42 patients): 1
Adverse effect Tension in the body (back, arms, legs), % ([1]; 40 mg/day, 42 patients): 0.0%
Adverse effect Tension in the body (back, arms, legs), N (number of people) ([1]; 40 mg/day, 42 patients): 0
Adverse effect Tingling in the hands, % ([1]; 40 mg/day, 42 patients): 0.0%
Adverse effect Tingling in the hands, N (number of people) ([1]; 40 mg/day, 42 patients): 0
Adverse effect Weakness, % ([1]; 40 mg/day, 42 patients): 0.0%
Adverse effect Weakness, N (number of people) ([1]; 40 mg/day, 42 patients): 0
Adverse effect Bitter taste in mouth, pain in the left hypochondrium, % ([1]; 60 mg/day, 44 patients): 2.3%
Adverse effect Bitter taste in mouth, pain in the left hypochondrium, N (number of people) ([1]; 60 mg/day, 44 patients): 1
Adverse effect Constipation, % ([1]; 60 mg/day, 44 patients): 2.3%
Adverse effect Constipation, N (number of people) ([1]; 60 mg/day, 44 patients): 1
Adverse effect Daytime drowsiness, % ([1]; 60 mg/day, 44 patients): 0.0%
Adverse effect Daytime drowsiness, N (number of people) ([1]; 60 mg/day, 44 patients): 0
Adverse effect Decreased appetite, % ([1]; 60 mg/day, 44 patients): 0.0%
Adverse effect Decreased appetite, N (number of people) ([1]; 60 mg/day, 44 patients): 0
Adverse effect Dizziness, % ([1]; 60 mg/day, 44 patients): 9.1%
Adverse effect Dizziness, N (number of people) ([1]; 60 mg/day, 44 patients): 4
Adverse effect Elevated creatinine kinase level, % ([1]; 60 mg/day, 44 patients): 2.3%
Adverse effect Elevated creatinine kinase level, N (number of people) ([1]; 60 mg/day, 44 patients): 1
Adverse effect Headache, % ([1]; 60 mg/day, 44 patients): 13.6%
Adverse effect Headache, N (number of people) ([1]; 60 mg/day, 44 patients): 6
Adverse effect Impaired concentration, % ([1]; 60 mg/day, 44 patients): 2.3%
Adverse effect Impaired concentration, N (number of people) ([1]; 60 mg/day, 44 patients): 1
Adverse effect Increased psychic tension, % ([1]; 60 mg/day, 44 patients): 4.5%
Adverse effect Increased psychic tension, N (number of people) ([1]; 60 mg/day, 44 patients): 2
Adverse effect Insomnia, % ([1]; 60 mg/day, 44 patients): 0.0%
Adverse effect Insomnia, N (number of people) ([1]; 60 mg/day, 44 patients): 0
Adverse effect Jaw reduction, % ([1]; 60 mg/day, 44 patients): 2.3%
Adverse effect Jaw reduction, N (number of people) ([1]; 60 mg/day, 44 patients): 1
Adverse effect Low hemoglobin level, % ([1]; 60 mg/day, 44 patients): 0.0%
Adverse effect Low hemoglobin level, N (number of people) ([1]; 60 mg/day, 44 patients): 0
Adverse effect Nausea, % ([1]; 60 mg/day, 44 patients): 4.5%
Adverse effect Nausea, N (number of people) ([1]; 60 mg/day, 44 patients): 2
Adverse effect Nocturnal awakening, % ([1]; 60 mg/day, 44 patients): 2.3%
Adverse effect Nocturnal awakening, N (number of people) ([1]; 60 mg/day, 44 patients): 1
Adverse effect Sleepiness, % ([1]; 60 mg/day, 44 patients): 15.9%
Adverse effect Sleepiness, N (number of people) ([1]; 60 mg/day, 44 patients): 7
Adverse effect Tension in the body (back, arms, legs), % ([1]; 60 mg/day, 44 patients): 2.3%
Adverse effect Tension in the body (back, arms, legs), N (number of people) ([1]; 60 mg/day, 44 patients): 1
Adverse effect Tingling in the hands, % ([1]; 60 mg/day, 44 patients): 2.3%
Adverse effect Tingling in the hands, N (number of people) ([1]; 60 mg/day, 44 patients): 1
Adverse effect Weakness, % ([1]; 60 mg/day, 44 patients): 6.8%
Adverse effect Weakness, N (number of people) ([1]; 60 mg/day, 44 patients): 3
Safety profile and tolerability in patients ([1]; GAD patients, 40 and 60 mg/day, 8 weeks): favorable safety profile and good tolerability
Side effects observed ([1]; dose of 60 mg, GAD patients): headache, drowsiness, dizziness, weakness, nausea, increased anxiety

Reference: patent publication US12357619B2, “Noradrenergic and specific serotonergic anxiolytic and antidepressant, method for the production and use thereof” (ALLA CHEM, LLC, priority 2020, dated 2025)
